Test [1] concerns L1210. In words: Selectivity index, ratio of IC50 for mouse L1210 cells to IC50 for mouse P815 cells. Format: functional.
Test [2] deals with L1210. Nature of the test: Selectivity index, ratio of IC50 for mouse L1210 cells to IC50 for mouse 4T1 cells. Format: functional.
For test [3], the system named is P815. In words: Cytotoxicity against mouse P815 cells expressing biotin receptor after 72 hrs by MTT assay. The class given is functional, cell-based. The settings on record: P815, 72 h.
Test [4] has as its system 4T1. Nature of the test: Cytotoxicity against mouse 4T1 cells expressing biotin receptor after 72 hrs by MTT assay. The class given is functional, cell-based. The conditions noted are these: 4T1, 72 h. (Tetrazolium dyes change colour on reduction, which living cells bring about.)
Test [5] has as its system L1210. In words: Cytotoxicity against mouse L1210 cells after 72 hrs by MTT assay. Format: functional, cell-based. The conditions noted are these: L1210, 72 h.
The nature of test [6]: Antitumor activity against mouse HepS cells xenografted in mouse assessed as tumor growth inhibition at 30 ug/kg. The class given is functional. The settings on record: read-out: TGI.

Consider `CCCCCC[C@H](O)CCC[C@H](O)[C@H]1CC[C@H]([C@H]2CC[C@H]([C@H](O)CCCCCCCCCCCCC3=C[C@H](C)OC3=O)O2)O1` [SQUAMOCIN], for which the “Ratio IC50” value worked out at 0.068 in test [1] and 3.75 in test [2]. Further, the IC50 (usually the concentration that inhibits the measured activity by half) in test [3] was found to be 19800 nM; in test [4], 360 nM; in test [5], 1350 nM. Moreover, in test [6], the inhibition in vivo at 0.03 mg/kg came out at 78%.

For the origin of these results see ChEMBL document CHEMBL3098074, “Synthesis and tumor cell growth inhibitory activity of biotinylated annonaceous acetogenins” (Eur J Med Chem, 2014).
